From ChEMBL document CHEMBL5120850, “Conformational adjustment overcomes multiple drug-resistance mutants of tropomyosin receptor kinase” (Eur J Med Chem, 2022)

Tests used:
BaF3 [1] = assay: Antitumor activity against mouse Ba/F3 cells expressing in […] wildtype allografted in BALB/cA mouse assessed as reduction in tumor growth at 30 mg/kg twice daily for 12 to 14 days relative to control; assay type: functional; details: time 12-14 day, read-out: TGI
BaF3 [2] = assay: Antitumor activity against mouse Ba/F3 cells expressing in ETV6-TRKC-G623R mutant allografted in BALB/cA mouse assessed as reduction in tumor growth at 30 mg/kg twice daily for 12 to 14 days relative to control; details: BaF3, read-out: TGI

## O=C(Nc1cnn2ccc(N3CCC[C@@H]3c3cc(F)ccc3F)nc12)N1CC[C@H](O)C1 [LAROTRECTINIB]
BaF3 [1]
  inhibition in vivo at 30 mg/kg: 30%

## C[C@@H]1CCc2ncc(F)cc2[C@H]2CCCN2c2ccn3ncc(c3n2)C(=O)N1 [SELITRECTINIB]
BaF3 [2]
  inhibition in vivo at 30 mg/kg: 73%
